Test results: PubChem BioAssay AID1919000 (Molecular Pharmacology Branch, DTP, NCI, 2023)

Test system: 653999-131-R-J2-PDC complex spheroids, growth % test/control
Experiment: Anticancer human tumor 653999-131-R-J2-PDC patient-derived lung adenocarcinoma cell line growth inhibition [AhR]
Details: for viability, T/C: stronger effect = lower value
Description: Multicellular complex tumor spheroid response to aryl hydrocarbon receptor antagonists in combination with a variety of drugs and investigational agents in selected tumor cell lines
The current study was undertaken to assess response to aryl hydrocarbon receptor antagonists in combination with standard-of-care drugs and investigational agents in solid tumor complex spheroid models. Complex spheroids include a stromal component modeled by human endothelial cells (HUVEC) and fibroblasts modeled by human mesenchymal stem cells (MSCs). The concentration ranges selected for each drug and investigational agent were based upon clinically achievable concentrations if the clinical Cmax of the agent was known.
Compounds. The drugs and investigational agents: BAY 2416964 (NSC825713), GNF351 (NSC835774), CH-223191 (NSC835775), CPI-455 (NSC825282), aza-TdCyd (NSC777586), decitabine (NSC127716), belinostat (NSC758774), entinostat (NSC756642), pevonedistat (NSC761192), tazemetostat (NSC777109), talazoparib (NSC765396), olaparib (NSC753686), selinexor (NSC780203), nedisertib (M3814, NSC802822), bortezomib (NSC756655), venetoclax (NSC766270), doxorubicin (NSC123127), elimusertib (BAY189344, NSC800525), ceralasertib (AZD6738, NSC777638), TAK-243 (NSC785004), alisertib (NSC759677), etoposide (NSC141540), topotecan (NSC609699), eribulin (NSC707389), gemcitabine (NSC613327), carboplatin (NSC241240), cisplatin (NSC119875), and SN-38 (NSC673596) were obtained from the National Cancer Institute (NCI) Developmental Therapeutics Program Chemical Repository (32). The FDA-approved anticancer drug set is available from the Developmental Therapeutics Program at https://dtp.cancer.gov/organization/dscb/obtaining/available plates.htm. […] The stock solutions were prepared in dimethyl sulfoxide (DMSO, Sigma-Aldrich, St. Louis, MO, cat. D2650), except for the platinum compounds which were prepared in saline (Quality Biological, Gaithersburg, MD, cat. 114-055-101), at 800-fold the tested concentration and stored at -70 degrees C prior to their use. All drugs and investigational agents were tested over a range starting from a high concentration at or near the clinical Cmax and decreasing in half-log increments. If the clinical Cmax for an agent had not been determined, the highest concentration tested was 10 microM (Table 1).
Cell Culture. All cells were maintained in an incubator at 37 degrees C and 5% CO2 with 95% humidity. The PDC lines were cultured according to standard operating procedures established by the NCI PDMR (https://pdmr.cancer.gov). Briefly, all PDCs were thawed and cultured in Matrigel-coated flasks prepared with a working solution of 1X Ham's F-12 nutrient mix, without supplementation (Invitrogen, Waltham, MA, cat. 11765054), 100 U/mL penicillin-streptomycin (Invitrogen, cat. 15140122), and 2.5% Matrigel (Corning Inc., Corning, NY, cat. 354248) for the first three passages. All PDCs were cultured in complete DMEM/F-12 media containing advanced DMEM/F-12 (Invitrogen, cat. 12634028), 4.9% defined fetal bovine serum, heat inactivated (HyClone Laboratories Inc., Logan, UT, cat. SH30070.03HI), 389 ng/mL hydrocortisone (Sigma-Aldrich, cat. H4001), 9.7 ng/mL human EGF recombinant protein (Invitrogen, cat. PHG0313), 23.4 microg/mL adenine (Sigma-Aldrich, cat. A2786), 97.3 U/mL penicillin-streptomycin (Invitrogen, cat. 15140122), 1.9 mM L-glutamine (Invitrogen, cat. 25030081), and 9.7 microM Y-27632 dihydrochloride (Tocris Bioscience, Bristol, United Kingdom, cat. 1254). The PDCs were cultured in complete DMEM/F12 media without 10 microM Y-27632 dihydrochloride for at least two passages prior to the screen. The established cell lines NCI-H1341 and […] were cultured in DMEM/F-12, HEPES (Invitrogen, cat. 11330032), 5% defined fetal bovine serum (HyClone Laboratories Inc., cat. SH30070.03), ITS premix universal culture supplement [insulin (5 microg/mL), transferrin (5 microg/mL), and selenious acid (5 ng/mL)] […]
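Further: spheroids exposed to agents for seven days.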

In the case of `CC(C)CC(NC(=O)C(Cc1ccccc1)NC(=O)c1cnccn1)B(O)O` (configuration not stated) + CC(CO)NC(=O)c1cc(-c2ccc(Cl)cc2)nn(-c2cnn(C)c2)c1=O, the IC50 (curve of first compound, second compound 0.1 µM) is reported as 14.1 nM, the IC50 (curve of first compound, second compound 0.316 µM) is reported as 13.4 nM and the IC50 (curve of first compound, second compound 1 µM) is reported as 15.4 nM. The IC50 (curve of first compound, second compound 3.16 µM) was 15.7 nM, the IC50 (curve of first compound, second compound 10 µM) was 16.4 nM and the viability, T/C (second compound 0.1 µM, first compound 0.000949 µM) was 108%. It also gave a viability, T/C (second compound 0.1 µM, first compound 0.003 µM) of 116%, a viability, T/C (second compound 0.1 µM, first compound 0.00949 µM) of 65.1% and a viability, T/C (second compound 0.1 µM, first compound 0.03 µM) of 20.3%. The viability, T/C (second compound 0.1 µM, first compound 0.0949 µM) was 9.49%, the viability, T/C (second compound 0.1 µM, first compound 0.3 µM) was 3.53% and the viability, T/C (second compound 0.316 µM, first compound 0.000949 µM) was 111%. It also gave a viability, T/C (second compound 0.316 µM, first compound 0.003 µM) of 121%, a viability, T/C (second compound 0.316 µM, first compound 0.00949 µM) of 64.6% and a viability, T/C (second compound 0.316 µM, first compound 0.03 µM) of 17.8%. It also gave a viability, T/C (second compound 0.316 µM, first compound 0.0949 µM) of 11.5%, a viability, T/C (second compound 0.316 µM, first compound 0.3 µM) of 2.06% and a viability, T/C (second compound 1 µM, first compound 0.000949 µM) of 101%. For the same compound, the viability, T/C (second compound 1 µM, first compound 0.003 µM) was 122%, the viability, T/C (second compound 1 µM, first compound 0.00949 µM) was 73.4% and the viability, T/C (second compound 1 µM, first compound 0.03 µM) was 19.5%. The viability, T/C (second compound 1 µM, first compound 0.0949 µM) was 14.9%, the viability, T/C (second compound 1 µM, first compound 0.3 µM) was 4.87% and the viability, T/C (second compound 3.16 µM, first compound 0.000949 µM) was 121%. It also gave a viability, T/C (second compound 3.16 µM, first compound 0.003 µM) of 120%, a viability, T/C (second compound 3.16 µM, first compound 0.00949 µM) of 73.3% and a viability, T/C (second compound 3.16 µM, first compound 0.03 µM) of 20.1%. The viability, T/C (second compound 3.16 µM, first compound 0.0949 µM) was 12.1%, the viability, T/C (second compound 3.16 µM, first compound 0.3 µM) was 4.74% and the viability, T/C (second compound 10 µM, first compound 0.000949 µM) was 99.5%. For the same compound, the viability, T/C (second compound 10 µM, first compound 0.003 µM) was 117%, the viability, T/C (second compound 10 µM, first compound 0.00949 µM) was 74.5% and the viability, T/C (second compound 10 µM, first compound 0.03 µM) was 22.1%. The viability, T/C (second compound 10 µM, first compound 0.0949 µM) was 12.8% and the viability, T/C (second compound 10 µM, first compound 0.3 µM) was 2.47%.

`CC(CO)NC(=O)c1cc(-c2ccc(Cl)cc2)nn(-c2cnn(C)c2)c1=O` (configuration not stated) was tested, and the viability, T/C (compound 0.1 µM) was 93.8% [middle of 20 runs] and the IC50 (compound alone, run of 05/31/2022) was > 10000 nM.
